What all share (assay type): biochemical
In data set [1] the test system is Human fructosamine oxidase. Put plainly: Interference of additives/anticoagulants in the fructosamine oxidase assay. The following applies: additive in the reagent (Heparin 1000 U/L, EDTA 100 μM); control 100. As for the experimental part:
(§1) The reagent is 50 mM TES buffer pH 7.4 containing 10 μM cytochrome c (Sigma), and […] 50 μM fructosamine as glycated bovine serum albumin.
(§2) One unit of enzyme was defined as the amount which reduced 1 μmol/minute of cytochrome c in solution under the above assay conditions. The calculation factor is determined from the molar absorptivity for ferrocytochrome c (E550nm) according to the formula: U/L(μmol.min^−1.L^−1)=TV×10^3/ε550nm×SV where • TV=total reaction volume • SV=sample volume (iv) Materials
Cytochrome c is a non-specific reductant and other reducing substances in sera or anticoagulants added to the blood sample at specimen collection may interfere in the assay as shown in Table 4.

The test system of data set [2] is fructosamine oxidase. Put plainly: Specificity of the fructosamine oxidase assay for reactive oxygen species, free radical scavengers added to the reagent. The following applies: free radical scavenger added to the reagent (superoxide dismutase 20 kU/L, catalase 1000 kU/L, mannitol 50 mmol/L); control 15.34 ± 0.16. As for the experimental part:
as §1, §2
The specificity of the assay for reactive oxygen species was tested by measuring degree of inhibition of ferricytochrome c reduction after adding the following oxygen free radical scavengers to the reaction mixture: (a) Superoxide dismutase to selectively remove superoxide; (b) catalase to selectively remove hydrogen peroxide; & (iii) mannitol to scavenge hydroxyl radicals.

Data set [3] concerns fructosamine oxidase. Put plainly: Fructosamine oxidase inhibitor assay (ferricytochrome c reduction) in human blood plasma. Particulars: human plasma sample; for IC50: read-out: IC50, concentration of inhibitor causing 50% inactivation of the enzyme. Further details: velocity constant (K), fraction of the enzyme inhibited in a given period of time: dose or concentration left out as unconfirmed. As for the experimental part:
as §1, §2
An important application of the current activity assay is as a means to identify potential fructosamine oxidase antagonists and inhibitors. Fructosamine oxidase inhibitors may be hydrazine compounds which bind and block the quinone co-factor, copper chelators which bind and block the copper co-factor, or substrate analogues which mimic the normal substrate of the enzyme. […]
The effectiveness of an enzyme inhibitor is usually expressed by a velocity constant (K) which determines the fraction of the enzyme inhibited in a given period of time by a certain concentration of inhibitor. The specificity of the inhibitor for the active center of the enzyme is indicated by the concentration of inhibitor causing 50% inactivation of the enzyme (IC50). […].

On to `O=C(O)CN(CCN(CC(=O)O)CC(=O)O)CC(=O)O` [EDTA, ethylenediamine tetraacetic acid], for which the “Activity compared with control” value in data set [1] amounted to 26.3%.
Consider superoxide dismutase, for which the Enzyme activity in the data set with fructosamine oxidase [2] was determined as 9.99 ± 0.03 U/L.
With Heparin, the “Activity compared with control” value in data set [1] worked out at 24.4%.
Regarding `OC[C@@H](O)[C@@H](O)[C@H](O)[C@H](O)CO` [mannitol], the Enzyme activity in the data set with fructosamine oxidase [2] is 14.96 ± 0.19 U/L.
For `C[C@@](Cc1ccc(O)c(O)c1)(NN)C(=O)O` [carbidopa], in the data set on fructosamine oxidase [3], the “velocity constant (K), fraction of the enzyme inhibited in a given period of time” value stood at 15 % per minute and the IC50 was determined as 500 nM.
For `C[C@H](CS)C(=O)N1CCC[C@H]1C(=O)O` [captopril], in the data set with fructosamine oxidase [3], the “velocity constant (K), fraction of the enzyme inhibited in a given period of time” value was 2.6 % per minute and the IC50 is 830 nM.
Compound catalase yielded an Enzyme activity with fructosamine oxidase [2] of 12.23 ± 0.03 U/L.
